Data published in patent publication US10881110B2, “Herbicidal compositions comprising isoxazolo[5,4-b]pyridines” (BASF SE, priority 2014, dated 2021).
Where two headings read alike, the source gives them in different places.

Tests used:
Test in all cases: greenhouse post-emergence herbicidal test
DIGSA = format: in vivo, Digitaria sanguinalis
Description: (§1) The culture containers used were plastic pots containing medium loamy sand with approximately 4.6% of humus and 69.9% sand as substrate. The seeds of the test plants were sown separately for each species.
(§2) For the post-emergence treatment, the test plants were grown to a plant height of from 1 to 15 cm, depending on the plant habit, and only then treated with the active compounds which had been suspended or emulsified in water. To this end, the test plants were either sown directly, and grown in the same containers, or they were first grown separately as seedlings and transplanted into the test containers a few days prior to treatment.
(§3) Depending on the species, the plants were kept at 10-25° C. and 20-35° C., respectively.
(§4) The test period extended over 1 to 3 weeks. During this time, the plants were tended and their response to the individual treatments was evaluated 20 days after treatment except mentioned otherwise.
(§5) Evaluation was carried out using a scale from 0 to 100. 100 means no emergence of the plants, or complete destruction of at least the above-ground parts, and 0 means no damage or normal course of growth.
(§6) The respective stated components A and B, and, if appropriate, C, were formulated as a 10% by weight strength emulsion concentrate and, with addition of the amount of solvent system, introduced into the spray liquor used for applying the active compound. In the examples, the solvent used was water.
(§7) In the examples below, using the method of S. R. Colby (1967) “Calculating synergistic and antagonistic responses of herbicide combinations”, Weeds 15, p. 22 ff., the value E, which is expected if the activity of the individual active compounds is only additive, was calculated. E=X+Y−(X·Y/100)

APESV = format: in vivo, Apera spica-venti; set-up: key to herbicidal activity against APESV found: rating on a scale from 0 to 100; details: post emergence; for pest or weed control at 31.25 g/ha / pest or weed control at 62.5 g/ha / pest or weed control at 125 g/ha: Apera spica-venti, post-emergence, 480 h, read-out: herbicidal activity against APESV found
Outline: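 Post-emergence spray on 1–15 cm plants in medium loamy sand pots; actives as 10% w/w EC diluted in water. 10-25° C / 20-35° C per species. Visual score 20 d after treatment, 0 = no damage, 100 = full kill; Colby expected value E=X+Y−(X·Y/100).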

AMARE = format: in vivo, Amaranthus retroflexus
Description: as §1, §2, §3, §4, §5, §6, §7

POLCO = format: in vivo, Polygonum convolvulus; set-up: key to herbicidal activity against POLCO found: rating on a scale from 0 to 100; details: post emergence
Outline: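 Post-emergence greenhouse test: plants in loamy sand, sprayed at 1–15 cm height with aqueous spray liquor from 10% emulsion concentrates, kept at 10-25 °C or 20-35 °C by species. Damage scored 0–100 (100 = complete destruction), usually 20 days after treatment. Expected additive effect E from Colby: E=X+Y−(X·Y/100).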

[1] = a.i. g/ha: I.1 31.25, B.76 225, 20 days after treatment

O=C(O)c1cc(C2CC2)nc2onc(C3CC3)c12 [I.1]
herbicidal activity against DIGSA found (DIGSA; [1]): 35%
herbicidal activity against DIGSA found (DIGSA; a.i. g/ha: I.1 62.5, B.76 225, 20 days after treatment): 40%
herbicidal activity against DIGSA found (DIGSA; a.i. g/ha: I.1 62.5, B.80 250, 20 days after treatment): 40%
herbicidal activity against DIGSA found (DIGSA; application rate a.i.: I.1 250 g/ha, B.193 15 g/ha, alone or as mixture (composition 1.193)): 35
pest or weed control at 31.25 g/ha (APESV; I.1 alone 31.25 g/ha a.i.): 0%
pest or weed control at 62.5 g/ha (APESV; I.1 alone 62.5 g/ha a.i.): 0%
pest or weed control at 125 g/ha (APESV; I.1 alone 125 g/ha a.i.): 0%
pest or weed control at 31.25 g/ha (APESV; 31.25 g/ha a.i.): 0%
pest or weed control at 62.5 g/ha (APESV; 62.5 g/ha a.i.): 0%
pest or weed control at 125 g/ha (APESV; I.1 125 g/ha a.i.): 15%
pest or weed control at 31.25 g/ha (APESV; single active, 31.25 g/ha a.i.): 0%
pest or weed control at 62.5 g/ha (APESV; single active, 62.5 g/ha a.i.): 0%
pest or weed control at 125 g/ha (APESV; single active, 125 g/ha a.i.): 0%
herbicidal activity against APESV found (APESV; I.1 15.62 g/ha, B.88 1 g/ha a.i.): 0
herbicidal activity against APESV found (APESV; I.1 15.62 g/ha, B.95 1 g/ha a.i.): 0
herbicidal activity against APESV found (APESV; I.1 31.25 g/ha, B.88 1 g/ha a.i.): 0
herbicidal activity against APESV found (APESV; I.1 31.25 g/ha, B.88 2 g/ha a.i.): 0
herbicidal activity against APESV found (APESV; I.1 62.5 g/ha, B.88 1 g/ha a.i.): 10
herbicidal activity against APESV found (APESV; I.1 62.5 g/ha, B.88 2 g/ha a.i.): 10
herbicidal activity against APESV found (APESV; I.1 62.5 g/ha, B.95 1 g/ha a.i.): 10
herbicidal activity against APESV found (APESV; a.i. g/ha: I.1 2.3, B.67 62.5, 20 days after treatment): 0%
herbicidal activity against APESV found (APESV; a.i. g/ha: I.1 6.9, B.67 62.5, 20 days after treatment): 0%
herbicidal activity against APESV found (APESV; applied alone at 31.25 g/ha a.i.): 0
herbicidal activity against APESV found (APESV; applied alone at 125 g/ha a.i.): 15
herbicidal activity against APESV found (APESV; g/ha a.i.: I.1 31.25, B.24 1, mixture 31.25+1): 20
herbicidal activity against APESV found (APESV; g/ha a.i.: I.1 62.5, B.20 4, mixture 62.5+4): 20
herbicidal activity against APESV found (APESV; g/ha a.i.: I.1 62.5, B.52 2.5, mixture 62.5+2.5): 20
herbicidal activity against APESV found (APESV; g/ha a.i.: I.1 125, B.52 2.5, mixture 125+2.5): 35
herbicidal activity against AMARE found (AMARE; a.i. g/ha: I.1 15.6, B.190 62.5, 20 days after treatment): 30%
herbicidal activity against AMARE found (AMARE; a.i. g/ha: I.1 20.8, B.192 62.5, 20 days after treatment): 70%
herbicidal activity against AMARE found (AMARE; a.i. g/ha: I.1 31.25, B.190 62.5, 20 days after treatment): 35%
herbicidal activity against AMARE found (AMARE; [1]): 90%
herbicidal activity against AMARE found (AMARE; a.i. g/ha: I.1 31.25, bentazon Na 125, 20 days after treatment): 35%
pest or weed control at 31.25 g/ha (POLCO; Fallopia convolvulus, post-emergence, 480 h, I.1 alone 31.25 g/ha a.i., read-out: herbicidal activity against POLCO found): 0%
pest or weed control at 62.5 g/ha (POLCO; Fallopia convolvulus, post-emergence, 480 h, I.1 alone 62.5 g/ha a.i., read-out: herbicidal activity against POLCO found): 65%
pest or weed control at 125 g/ha (POLCO; Fallopia convolvulus, post-emergence, 480 h, I.1 alone 125 g/ha a.i., read-out: herbicidal activity against POLCO found): 65%
pest or weed control at 31.25 g/ha (POLCO; Fallopia convolvulus, post-emergence, 480 h, I.1 31.25 g/ha a.i., read-out: herbicidal activity against POLCO found): 20%
pest or weed control at 31.25 g/ha (POLCO; Fallopia convolvulus, post-emergence, 480 h, single active, 31.25 g/ha a.i., read-out: herbicidal activity against POLCO found): 20%
herbicidal activity against POLCO found (POLCO; 6 days after treatment, g/ha a.i.: I.1 31.25, B.96 70, mixture 31.25+70): 35
herbicidal activity against POLCO found (POLCO; 6 days after treatment, g/ha a.i.: I.1 31.25, B.96 140, mixture 31.25+140): 35
herbicidal activity against POLCO found (POLCO; 6 days after treatment, g/ha a.i.: I.1 31.25, naptalam 50, mixture 31.25+50): 35
herbicidal activity against POLCO found (POLCO; 6 days after treatment, g/ha a.i.: I.1 62.5, B.96 70, mixture 62.5+70): 70
herbicidal activity against POLCO found (POLCO; 6 days after treatment, g/ha a.i.: I.1 62.5, B.96 140, mixture 62.5+140): 70
herbicidal activity against POLCO found (POLCO; 6 days after treatment, g/ha a.i.: I.1 62.5, naptalam 50, mixture 62.5+50): 70
herbicidal activity against POLCO found (POLCO; I.1 15.6 g/ha, B.103 7.5 g/ha a.i.): 10
herbicidal activity against POLCO found (POLCO; I.1 15.62 g/ha, B.167 62.5 g/ha a.i.): 10
herbicidal activity against POLCO found (POLCO; I.1 15.62 g/ha, B.167 125 g/ha a.i.): 10
herbicidal activity against POLCO found (POLCO; I.1 15.62 g/ha, B.89 12.5 g/ha a.i.): 0
herbicidal activity against POLCO found (POLCO; I.1 62.5 g/ha, B.103 7.5 g/ha a.i.): 40
